Assay results from publication PMC11459959, “Discovery of new acetamide derivatives of 5-indole-1,3,4-oxadiazol-2-thiol as inhibitors of HIV-1 Tat-mediated viral transcription” (Antimicrobial Agents and Chemotherapy, 2024).
Where two headings read alike, the source gives them in different places.

Key:
[1] = test system: Tat-mediated LTR transcription; assay: Dual-reporter assay, F-Luc (Tat-mediated LTR transcription) in bl-DTR cells; type: cell-based, HIV-1; details: bl-DTR cells, doxycycline 50 ng/mL, 24 h; mean ± SD; read-out: IC50 of F-Luc (Tat)
Experimental: (§1) Fig 1 (A) (Top panel) Schematic representation of the primary compound screening using a dual-reporter system. […] (B). […] (Top graphs) bl-DTR cells (1 × 10^4) were treated with twofold serial dilutions of each compound before doxycycline (Dox) addition (final concentration, 50 ng/mL). After 24 h of treatment, the activities of firefly luciferase (F-Luc, red line) and Renilla luciferase (R-Luc, blue line) were determined using the Dual-Glo Luciferase assay system. (Bottom graphs) TZM-bl cells were treated with each indicated compound and subsequently infected with the HIV-1NL4-3 strain at a multiplicity of infection (MOI) of 1. At 48 h after infection, the viral infectivity (purple line) and cell viability (green line) were determined using the Bright-Glo luciferase assay kit and the PrestoBlue Cell Viability Reagent, respectively. […] (C). […] The targeted moieties for the SAR study are marked with dotted-circle lines.
(§2) The Tzm-bl-derived dual Tat reporter; TZM-bl/Tat/Rluc (bl-DTR) cells were established from TZM-bl cells using two Dox-inducible lentiviral expression cassettes cloned with Flag-tagged Tat86 and the R-Luc gene, as described in our previous study ([11]). TZM-bl, A3.01, J1.1, and J-Lat 6.3 cells as well as the HIV-1 molecular clone pNL4-3, pNL(AD8), ARV-resistant HIV-1 strains, and HIV-1NL43-IRES-eGFP (pBR43IeG-nef^+, gifted by Dr. Frank Kirchhoff) ([52]) were provided by the National Institute of Health HIV Reagent Program (NIH, Bethesda, MD, USA). HeLa (CCL-2) and 293T (CRL-3216) cell lines were purchased from the American Type Culture Collection (ATCC, Manassas, VA, USA). The bl-DTR, TZM-bl, HeLa, and 293T cells were cultured in Dulbecco’s modified Eagle’s medium supplemented with 1% penicillin–streptomycin and 10% (vol/vol) heat-inactivated fetal bovine serum (all from Gibco-BRL, Gaithersburg, MD, USA), and 1 µg/mL of puromycin and 200 µg/mL of zeocin were additionally supplemented for the bl-DTR cells. PBMCs were purchased from AllCells (Alameda, CA, USA) and cultured as previously described ([12]). The information on ARV-resistant HIV-1 strains was described in previous reports as follows: NNRTI-resistant 12241 and 12243 ([53]); NRTI-resistant 7396, 7406, and 7407 ([54]); INSTI-resistant 11847 and 11849 ([55], [56]); and PI-resistant 11800 and 11803 ([57]). Each molecular HIV-1 clone was transfected to 293T cells, as previously described ([58]), to obtain infectious HIV-1 particles. Virus-containing cell culture supernatants were collected 3 days after transfection, and filtered through a 0.45-µm membrane filter (Millipore Sigma, Burlington, MA, USA) to remove cell debris. The viral titration was performed as described previously ([59]) with some minor modifications. In brief, 1 × 10^4 TZM-bl cells seeded in 96-well plates were infected with 200 µL of virus-containing medium diluted serially twofold. The incubation was for 2 days and the experiment was performed in triplicate; the infection time minimized the virus spread ([59]). The titration of the infectious viral particles was performed with a ß-Gal staining assay using the ßeta-Galactosidase Staining Kit (Mirus Bio, Madison, WI, USA) following the manufacturer’s protocols. In brief, the infected cells were washed with phosphate-buffered saline (PBS) and fixed using a Cell Fixative Working solution. The cells were washed with PBS and stained using the Cell Staining Working Solution containing X-gal. The infected blue-colored cells were counted under a microscope (100× magnification). The infectious virus titer was determined as a mean value of blue-colored cells count × dilution factor and used for determining the multiplicity of infection (MOI) in each infection experiment.

[2] = test system: general cellular transcription/translation (R-Luc); assay: Dual-reporter assay, R-Luc in bl-DTR cells; type: cell-based; details: doxycycline, 24 h
Experimental: as §1, §2

HIV-1NL4-3 [3] = assay: HIV-1 infectivity in TZM-bl cells (F-Luc); type: cell-based; details: for EC50: read-out: EC50
TZM-bl cells = assay: Cell viability of TZM-bl cells (PrestoBlue); type: cell-based
Experimental: The TZM-bl cells (also referred to as JC53BL-13) expressing human CD4, CXCR4, and CCR5 carrying the F-Luc and lacZ genes downstream of the HIV-1 LTR promoter ([60]) were used to determine the inhibitory effect of the compounds on HIV-1 infection, as previously described ([11], [12], [61]). In brief, 1 × 10^4 cells were cultured in 96-well plates for 24 h and subsequently treated with compounds at the indicated concentrations. Without replacement of the culture medium, the cells were subsequently infected with the HIV-1NL4-3 wild-type or ARV-resistant HIV-1 strains at an MOI of 1 to determine the exact inhibitory effect of compounds on a single-round infection. After 48 h, the inhibitory effect of the compounds was determined using a Bright Glo luciferase assay kit (Promega) or β-Galactosidase Enzyme Assay kit (Promega). The infectivity data were presented as a percentage relative to the dimethyl sulfoxide (DMSO) control (vehicle). Cell viability was determined using the resazurin-based PrestoBlue Cell Viability Reagent (Thermo Fisher Scientific, Waltham, MA, USA) following the manufacturer’s instructions.

[4] = test system: INSTI-resistant HIV-1 strain 11847; assay: microbe, parasite or virus in culture; type: cell-based; details: Human immunodeficiency virus 1, TZM-bl
Experimental: (§3) Fig 7 (A–C) TZM-bl cells (1 × 10^4 cells/well) cultured in a 96-well plate were treated with fivefold serial dilutions of the indicated compound or ARV for 1 h before infection with the HIV-1NL4-3 or ARV-resistant HIV-1 strains at an MOI of 1, respectively. At 48 h after infection, the EC50 values were determined using an F-Luc activity. The symbols represent the fold-change values of EC50 against each mutant virus relative to the wild-type (WT) virus. (D) PBMCs (5 × 10^4 cells/well) were infected with the HIV-1NL4-3 and PIs-resistant HIV-1 strain at an MOI of 0.1, respectively. Subsequently, the PBMCs were treated with 10-fold serial dilutions of the indicated compounds or PI. At 3 days after infection, the EC50 values on the viral replication were determined using a p24 […] assay kit. (E) The inhibitory kinetics for the WT and ARV-resistant viruses. TZM-bl cells infected with WT or ARV-resistant viruses were cultured upon fivefold serial dilutions of each compound for 2 days and the infectivity was determined using an F-Luc activity.
as §2

[5] = test system: INSTI-resistant HIV-1 strain 11849; assay: microbe, parasite or virus in culture; type: cell-based; details: Human immunodeficiency virus 1, TZM-bl
Experimental: as §3, §2

HIV-1NL4-3 [6] = assay: Time-of-addition assay in TZM-bl cells; type: cell-based; details: HIV-1NL4-3 MOI 1, 9 and 13 1.5 μM, T-20 1 µM, triptolide 5 nM, ARVs 1 µM, F-Luc at 54 h
Experimental: Fig 5 (A) Time-of-addition assay. […] Subsequently, the cells were treated with the compounds at the indicated time points (0, 1, 2, 4, 6, 8, 10, 12, 24, 30, 36, 42, and 48 h) after HIV-1 infection. The final concentrations of compounds are described in Materials and Methods. Viral activity according to the timing of drug addition was measured as F-Luc activity at 54 h after infection. The relative activities are represented as the mean ± SD (n = 3) compared with the activity observed 54 h post-infection. The relative time frames associated with each HIV-1 infection step are defined based on the time frame of susceptibility to the drug that blocks that particular infection step. […] At 16 h after infection, the viral reverse transcription (RT) product (viral cDNA) level was determined by quantitative real-time PCR (RT-qPCR) using gag and 18S rRNA primer sets and represented as the mean ± SD (n = 3) normalized against the amount of the 18S rRNA compared with the DMSO control. **P < 0.01 compared with the vehicle (DMSO). (C) An in vitro integrase (IN) assay was performed with 10 µM of the indicated compounds following the manufacturer’s protocol. **P < 0.01 compared with vehicle (DMSO). (D) A3.01 cells were infected with HIV-1 upon treatment with the indicated compounds (5 µM) and ARVs (EFV and DTG) as the experimental controls. At 40 h after infection, cellular chromosomal DNA was purified, and the integrated proviral DNA was detected through nested Alu-PCR amplification.
A time-of-addition assay was performed as previously described ([25]) with minor modifications. […] Reference drug and test compounds were subsequently added at the indicated time (0, 1, 2, 4, 6, 8, 10, 12, 24, 30, 36, 42, and 48 h after infection). Final concentrations were as follows: compounds 9 and 13 (1.5 μM), T-20 (1 µM), Triptolide (5 nM), and ARVs (AZT, EFV, DTG, RAL) (1 µM). The viral activity according to the timing of drug addition was measured using a Bright Glo luciferase assay kit (Promega). Virus activity curves present a % activity relative to the activity observed at 54 h after infection, and the data are presented as the mean ± standard deviation (SD) (n = 3). The relative time frame associated with each HIV-1 infection step was defined based on the sensitivity to each drug that blocks a particular infection step.

| Compound | IC50 [1] [µM] | Relative R-Luc activity at IC50 of F-Luc [2] | SI (CC50/EC50) (HIV-1NL4-3 [3]; TZM-bl cells) | EC50 (HIV-1NL4-3 [3]; TZM-bl cells infected with HIV-1NL4-3 at MOI 1, 48 h, F-Luc, mean ± SD) [µM] | CC50 (TZM-bl cells; TZM-bl cells, absence of HIV-1 infection, mean ± SD, read-out: CC50) [µM] | CC50 (TZM-bl cells; human, 48 h) [µM] | EC50 (HIV-1NL4-3 [3]; Human immunodeficiency virus 1, TZM-bl, Table S1, WT virus, TZM-bl) [µM] | EC50 [4] [µM] | EC50 [5] [µM] | time of administration after infection at which effectiveness began to decrease / was lost (HIV-1NL4-3 [6]) [h] |
| --- | --- | --- | --- | --- | --- | --- | --- | --- | --- | --- |
| 5-(2,3-Dimethyl-1H-indol-5-yl)-4-phenethyl-4H-1,2,4-triazole-3-thiol [Compound 29] | 0.43 ± 0.03 | 90 | 164.33 | 0.39 ± 0.03 | 64.1 ± 6.31 |  |  |  |  |  |
| Cc1[nH]c2ccc(-c3nnc(SC(C)C(=O)N4CCCC4)n3CCc3ccccc3)cc2c1C (centres unmarked) [Compound 32, 2-((5-(2,3-Dimethyl-1H-indol-5-yl)-4-phenethyl-4H-1,2,4-triazol-3-yl)thio)-1-(pyrrolidin-1-yl)propan-1-one] |  | 90 |  |  |  | 63.20 ± 2.65 |  |  |  |  |
| Cc1nnc(C(=O)NC(C)(C)c2nc(C(=O)NCc3ccc(F)cc3)c(O)c(=O)n2C)o1 [RAL, raltegravir, reference compound] |  |  |  |  |  |  | < 0.001 | 4.99 ± 0.2 | 14.3 ± 2.59 | 10 |
